Laboratory results published in publication PMC7180948, “New Insights into 4-Anilinoquinazolines as Inhibitors of Cardiac Troponin I–Interacting Kinase (TNNi3K)” (Molecules, 2020).

What was measured:
Experiment in all cases: biochemical
Design in all cases: KINOMEscan competition binding panel (Eurofins DiscoverX), single concentration, % inhibition
Conditions in all cases: read-out: 7 at 1 µM % inhibition
MYLK2 = MYLK2 (Homo sapiens, UniProt Q9H1R3)
In short: (§1)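 Values come from single-concentration (1 µM) profiling in the Eurofins DiscoverX KINOMEscan competition-binding platform, which covers over 400 kinases.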

TNIK = TNIK (Homo sapiens, UniProt Q9UKE5)
In short: as §1

PIK3CA(M1043I) = PIK3CA(M1043I) (Homo sapiens, UniProt P42336, M1043I)
In short: as §1

AURKA = AURKA (Homo sapiens, UniProt O14965)
In short: as §1

TESK1 = TESK1 (Homo sapiens, UniProt Q15569)
In short: as §1

FAK = target: T1, FAK (Homo sapiens, UniProt Q05397)
T1 construct: gene PTK2
In short: as §1

BMPR1B = BMPR1B (Homo sapiens, UniProt O00238)
In short: as §1

TIE1 = TIE1 (Homo sapiens, UniProt P35590)
In short: as §1

DRAK1 = target: T2, DRAK1 (Homo sapiens, UniProt Q9UEE5)
T2 construct: gene STK17A
In short: as §1

MRCKA = target: T3, MRCKA (Homo sapiens, UniProt Q5VT25)
T3 construct: gene CDC42BPA
In short: as §1

CHEK2 = CHEK2 (Homo sapiens, UniProt O96017)
Sequence of CHEK2 (O96017 whole entry): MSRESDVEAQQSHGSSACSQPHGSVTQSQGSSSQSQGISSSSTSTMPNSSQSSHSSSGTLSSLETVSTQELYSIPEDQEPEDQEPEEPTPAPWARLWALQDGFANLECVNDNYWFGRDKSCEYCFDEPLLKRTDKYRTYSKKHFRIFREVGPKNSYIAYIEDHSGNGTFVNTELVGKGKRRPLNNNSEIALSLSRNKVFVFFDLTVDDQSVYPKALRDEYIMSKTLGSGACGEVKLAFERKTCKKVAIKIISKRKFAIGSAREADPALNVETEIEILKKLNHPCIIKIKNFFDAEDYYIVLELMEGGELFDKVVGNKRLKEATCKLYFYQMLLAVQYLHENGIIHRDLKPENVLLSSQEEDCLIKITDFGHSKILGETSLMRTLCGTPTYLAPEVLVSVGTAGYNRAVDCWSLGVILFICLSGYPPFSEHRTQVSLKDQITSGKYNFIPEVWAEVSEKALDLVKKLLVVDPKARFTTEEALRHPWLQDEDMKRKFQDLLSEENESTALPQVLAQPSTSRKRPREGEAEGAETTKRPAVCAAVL
In short: as §1

HASPIN = HASPIN (Homo sapiens, UniProt Q8TF76)
In short: as §1

MAPKAPK2 = MAPKAPK2 (Homo sapiens, UniProt P49137)
Sequence of MAPKAPK2 (P49137 whole entry): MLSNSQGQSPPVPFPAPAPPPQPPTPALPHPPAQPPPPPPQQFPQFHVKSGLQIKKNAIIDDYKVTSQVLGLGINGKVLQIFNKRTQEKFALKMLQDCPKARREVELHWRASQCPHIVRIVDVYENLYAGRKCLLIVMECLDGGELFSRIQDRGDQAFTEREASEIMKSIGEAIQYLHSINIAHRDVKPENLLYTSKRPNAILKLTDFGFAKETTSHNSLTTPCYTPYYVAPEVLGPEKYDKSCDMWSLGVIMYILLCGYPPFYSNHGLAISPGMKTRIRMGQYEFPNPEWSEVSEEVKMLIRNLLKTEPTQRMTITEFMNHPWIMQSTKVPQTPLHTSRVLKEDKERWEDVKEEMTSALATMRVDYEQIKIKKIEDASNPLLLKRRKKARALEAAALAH
In short: as §1

ACVR1B = ACVR1B (Homo sapiens, UniProt P36896)
In short: as §1

ERK1 = target: T4, ERK1 (Homo sapiens, UniProt P27361)
T4 construct: gene MAPK3
In short: as §1

BRSK1 = BRSK1 (Homo sapiens, UniProt Q8TDC3)
In short: as §1

PAK1 = PAK1 (Homo sapiens, UniProt Q13153)
In short: as §1

SRPK1 = SRPK1 (Homo sapiens, UniProt Q96SB4)
In short: as §1

MLK2 = target: T5, MLK2 (Homo sapiens, UniProt Q02779)
T5 construct: gene MAP3K10
T5 sequence (Q02779 whole entry): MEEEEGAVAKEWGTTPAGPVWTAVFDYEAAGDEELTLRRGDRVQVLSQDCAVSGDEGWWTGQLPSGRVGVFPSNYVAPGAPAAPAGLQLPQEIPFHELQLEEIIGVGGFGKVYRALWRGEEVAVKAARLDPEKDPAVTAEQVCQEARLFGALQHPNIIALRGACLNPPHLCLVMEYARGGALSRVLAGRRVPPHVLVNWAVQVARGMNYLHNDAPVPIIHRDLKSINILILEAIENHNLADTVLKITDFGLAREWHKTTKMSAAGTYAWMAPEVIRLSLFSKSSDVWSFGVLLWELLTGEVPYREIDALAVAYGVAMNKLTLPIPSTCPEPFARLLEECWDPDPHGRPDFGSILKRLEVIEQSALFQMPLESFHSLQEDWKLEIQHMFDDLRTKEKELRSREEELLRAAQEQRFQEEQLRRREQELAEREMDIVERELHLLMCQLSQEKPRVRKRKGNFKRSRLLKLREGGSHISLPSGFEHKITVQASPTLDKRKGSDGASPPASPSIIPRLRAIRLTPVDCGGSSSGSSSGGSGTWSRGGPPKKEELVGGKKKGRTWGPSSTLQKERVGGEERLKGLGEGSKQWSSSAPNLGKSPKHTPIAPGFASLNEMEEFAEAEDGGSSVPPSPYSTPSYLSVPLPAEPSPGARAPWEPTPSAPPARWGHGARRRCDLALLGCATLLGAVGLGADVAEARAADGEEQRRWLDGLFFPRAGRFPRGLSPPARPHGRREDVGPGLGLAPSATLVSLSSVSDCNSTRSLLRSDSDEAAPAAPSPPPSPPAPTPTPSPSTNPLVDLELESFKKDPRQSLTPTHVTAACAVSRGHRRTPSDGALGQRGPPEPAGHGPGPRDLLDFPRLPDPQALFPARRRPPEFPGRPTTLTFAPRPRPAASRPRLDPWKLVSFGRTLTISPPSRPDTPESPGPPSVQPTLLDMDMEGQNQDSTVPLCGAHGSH
In short: as §1

STK33 = STK33 (Homo sapiens, UniProt Q9BYT3)
Sequence of STK33 (Q9BYT3 whole entry): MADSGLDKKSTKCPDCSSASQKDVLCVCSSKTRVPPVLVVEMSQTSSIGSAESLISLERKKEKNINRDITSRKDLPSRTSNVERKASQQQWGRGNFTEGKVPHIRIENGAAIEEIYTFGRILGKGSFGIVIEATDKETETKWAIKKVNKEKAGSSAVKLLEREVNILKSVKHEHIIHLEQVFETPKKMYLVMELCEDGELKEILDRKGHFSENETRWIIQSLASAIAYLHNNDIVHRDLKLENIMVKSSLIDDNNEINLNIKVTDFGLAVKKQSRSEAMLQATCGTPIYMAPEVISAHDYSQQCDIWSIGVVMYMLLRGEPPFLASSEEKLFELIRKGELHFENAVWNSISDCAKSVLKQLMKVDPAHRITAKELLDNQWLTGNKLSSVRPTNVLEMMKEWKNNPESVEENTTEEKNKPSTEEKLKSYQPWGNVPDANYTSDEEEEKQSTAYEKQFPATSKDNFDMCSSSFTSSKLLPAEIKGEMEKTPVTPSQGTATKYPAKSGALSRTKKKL
In short: as §1

NEK7 = NEK7 (Homo sapiens, UniProt Q8TDX7)
In short: as §1

NEK6 = NEK6 (Homo sapiens, UniProt Q9HC98)
Sequence of NEK6 (Q9HC98 whole entry): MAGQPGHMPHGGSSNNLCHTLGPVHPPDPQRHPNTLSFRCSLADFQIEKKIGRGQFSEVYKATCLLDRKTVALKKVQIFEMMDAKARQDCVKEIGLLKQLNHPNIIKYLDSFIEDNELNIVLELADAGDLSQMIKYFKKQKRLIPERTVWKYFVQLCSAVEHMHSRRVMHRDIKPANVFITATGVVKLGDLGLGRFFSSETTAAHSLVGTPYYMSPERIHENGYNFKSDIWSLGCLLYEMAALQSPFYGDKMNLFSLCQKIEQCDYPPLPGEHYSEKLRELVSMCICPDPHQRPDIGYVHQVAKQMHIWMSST
In short: as §1

LTK = LTK (Homo sapiens, UniProt P29376)
In short: as §1

ERK3 = target: T6, ERK3 (Homo sapiens, UniProt Q16659)
T6 construct: gene MAPK6
T6 sequence (Q16659 whole entry): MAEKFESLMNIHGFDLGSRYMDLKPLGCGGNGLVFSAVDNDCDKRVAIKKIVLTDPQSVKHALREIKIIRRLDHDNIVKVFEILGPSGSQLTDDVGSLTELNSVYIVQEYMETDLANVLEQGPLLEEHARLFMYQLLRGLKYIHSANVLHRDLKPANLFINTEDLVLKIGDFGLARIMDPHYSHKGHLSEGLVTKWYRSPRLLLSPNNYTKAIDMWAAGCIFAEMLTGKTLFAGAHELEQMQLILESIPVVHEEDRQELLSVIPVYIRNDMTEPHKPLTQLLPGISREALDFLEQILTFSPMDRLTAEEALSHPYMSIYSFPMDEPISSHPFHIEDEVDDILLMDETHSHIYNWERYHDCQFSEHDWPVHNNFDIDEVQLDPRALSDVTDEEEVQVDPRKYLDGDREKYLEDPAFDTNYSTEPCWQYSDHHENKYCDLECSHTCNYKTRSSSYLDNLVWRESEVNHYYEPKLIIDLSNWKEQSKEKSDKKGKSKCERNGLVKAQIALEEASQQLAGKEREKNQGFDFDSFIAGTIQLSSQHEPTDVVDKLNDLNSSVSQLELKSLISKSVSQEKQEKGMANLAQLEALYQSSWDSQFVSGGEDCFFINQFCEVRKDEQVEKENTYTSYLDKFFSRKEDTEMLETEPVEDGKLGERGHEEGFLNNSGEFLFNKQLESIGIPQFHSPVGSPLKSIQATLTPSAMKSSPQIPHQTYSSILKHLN
In short: as §1

AXL = AXL (Homo sapiens, UniProt P30530)
Sequence of AXL (P30530 whole entry): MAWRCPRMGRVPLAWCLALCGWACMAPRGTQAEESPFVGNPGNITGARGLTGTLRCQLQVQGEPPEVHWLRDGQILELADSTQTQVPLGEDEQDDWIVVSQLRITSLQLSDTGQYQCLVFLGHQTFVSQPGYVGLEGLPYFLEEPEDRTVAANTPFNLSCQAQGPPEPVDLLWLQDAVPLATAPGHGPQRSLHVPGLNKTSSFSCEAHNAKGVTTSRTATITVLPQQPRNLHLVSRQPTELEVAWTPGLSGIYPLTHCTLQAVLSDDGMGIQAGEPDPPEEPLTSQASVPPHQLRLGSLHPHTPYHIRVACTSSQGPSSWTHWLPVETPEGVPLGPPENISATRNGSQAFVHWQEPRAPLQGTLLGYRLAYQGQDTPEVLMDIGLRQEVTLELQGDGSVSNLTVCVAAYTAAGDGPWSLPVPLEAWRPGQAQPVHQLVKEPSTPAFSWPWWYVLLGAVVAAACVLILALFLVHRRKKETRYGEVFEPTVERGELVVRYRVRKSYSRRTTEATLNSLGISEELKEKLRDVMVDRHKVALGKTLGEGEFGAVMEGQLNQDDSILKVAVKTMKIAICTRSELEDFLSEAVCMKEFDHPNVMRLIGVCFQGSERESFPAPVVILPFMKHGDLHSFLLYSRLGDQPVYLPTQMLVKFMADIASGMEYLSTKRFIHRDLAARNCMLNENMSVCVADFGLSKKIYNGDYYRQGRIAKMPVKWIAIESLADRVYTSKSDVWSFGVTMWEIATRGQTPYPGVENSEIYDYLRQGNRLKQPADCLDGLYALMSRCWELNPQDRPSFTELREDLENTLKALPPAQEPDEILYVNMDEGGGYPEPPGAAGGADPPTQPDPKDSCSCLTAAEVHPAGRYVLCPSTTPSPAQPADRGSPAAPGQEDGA
In short: as §1

Sequence of MYLK2 (Q9H1R3 whole entry): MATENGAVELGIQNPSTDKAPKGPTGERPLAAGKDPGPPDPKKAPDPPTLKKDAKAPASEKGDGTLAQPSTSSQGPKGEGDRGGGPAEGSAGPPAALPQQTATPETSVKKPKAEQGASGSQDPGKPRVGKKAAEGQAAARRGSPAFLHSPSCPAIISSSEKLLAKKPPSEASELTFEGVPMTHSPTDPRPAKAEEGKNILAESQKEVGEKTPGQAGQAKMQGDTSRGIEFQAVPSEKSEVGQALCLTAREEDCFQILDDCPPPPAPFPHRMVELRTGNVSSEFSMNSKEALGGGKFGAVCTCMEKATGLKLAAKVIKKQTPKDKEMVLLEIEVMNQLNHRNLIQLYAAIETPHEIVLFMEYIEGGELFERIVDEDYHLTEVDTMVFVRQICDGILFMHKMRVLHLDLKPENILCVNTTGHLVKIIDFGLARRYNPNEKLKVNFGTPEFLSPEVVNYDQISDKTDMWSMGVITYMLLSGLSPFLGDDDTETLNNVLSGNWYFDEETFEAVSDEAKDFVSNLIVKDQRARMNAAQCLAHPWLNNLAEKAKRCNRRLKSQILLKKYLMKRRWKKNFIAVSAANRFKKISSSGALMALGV

SMILES: CNS(=O)(=O)c1ccc(N(C)C)c(Nc2ncnc3cc(OC)c(OC)cc23)c1 [compound 7, 3-((6,7-dimethoxyquinazolin-4-yl)amino)-4-(dimethylamino)-N-methylbenzenesulfonamide]
- inhibition at 1 µM (MYLK2): 0%
- inhibition at 1 µM (TNIK): 7%
- inhibition at 1 µM (PIK3CA(M1043I)): 29%
- inhibition at 1 µM (AURKA): 16%
- inhibition at 1 µM (TESK1): 0%
- inhibition at 1 µM (FAK): 8%
- inhibition at 1 µM (BMPR1B): 34%
- inhibition at 1 µM (TIE1): 0%
- inhibition at 1 µM (DRAK1): 0%
- inhibition at 1 µM (MRCKA): 0%
- inhibition at 1 µM (CHEK2): 11%
- inhibition at 1 µM (HASPIN): 3%
- inhibition at 1 µM (MAPKAPK2): 0%
- inhibition at 1 µM (ACVR1B): 0%
- inhibition at 1 µM (ERK1): 0%
- inhibition at 1 µM (BRSK1): 0%
- inhibition at 1 µM (PAK1): 0%
- inhibition at 1 µM (SRPK1): 0%
- inhibition at 1 µM (MLK2): 15%
- inhibition at 1 µM (STK33): 6%
- inhibition at 1 µM (NEK7): 0%
- inhibition at 1 µM (NEK6): 0%
- inhibition at 1 µM (LTK): 44%
- inhibition at 1 µM (ERK3): 0%
- inhibition at 1 µM (AXL): 12%
